Patent publication US20190142810A1, “MITOCHONDRIAL INHIBITORS FOR THE TREATMENT OF PROLIFERATION DISORDERS” (Basilea Pharmaceutica International AG, priority 2016, published 2019)

System: HeLa galactose cells
Assay: Cell growth and proliferation assay of HeLa galactose cells (crystal violet)
Format: cell-based
Conditions: 72 hours incubation, crystal violet staining, absorbance at 590 nm
Protocol: The cervical tumor cell line HeLa (ATCC, CCL-2) was cultivated in DMEM medium (Invitrogen cat. no. 11971, 4.5 g/L high glucose) containing 10% fetal calf serum (Sigma cat. no. F9665) and 1% Penicillin/Streptomycin (Sigma cat. no. P0781) at 37° C. in 5% CO2. HeLa galactose cells (i.e. HeLa cells that grow in high concentrations of galactose) were generated from HeLa glucose cells (i.e. HeLa cells that grow in high concentrations of glucose) by gradually changing the amount of glucose in the media to zero glucose in the presence of galactose as a sugar source (50% galactose/50% glucose media for one week, then 75% galactose/25% glucose media for one week, to 100% galactose media in the third week). Galactose media (Invitrogen cat. no. 11966) was supplemented with 10 mM galactose (Sigma cat. no. G5388).
Cell Growth and Proliferation Assay of HeLa Galactose and Glucose Cells
HeLa galactose cells and HeLa glucose cells were seeded in 96 well plates (TPP, cat. no 92696) at 2000 and 1500 cells/well, respectively, in 100 μL of complete medium. After overnight incubation the cells were incubated for 72 hours in complete medium containing 0.001% DMSO or compounds (final concentration of DMSO 0.001%). After the medium was removed, cells were fixed and stained by adding 50 μL crystal violet staining (0.2% crystal violet (Sigma-Aldrich cat. no. C0775) in 50% methanol) per well. The plates were incubated for 1 hour at room temperature. Subsequently the stain was decanted and plates were washed 4 times with de-mineralized water. Plates were air-dried for 2 hours. The stain was dissolved by adding 100 μL buffer (0.1 M Tris pH 7.5, 0.2% SDS, 20% ethanol) per well and shaking the plates. Absorbance at 590 nm was measured using a SpectraMax® 250 plate reader (Molecular Devices). Antiproliferative/growth inhibition IC50s were calculated from concentration-response curves using GraphPad Prism software.

Row | IC50 (Homo sapiens, HeLa, 72 h) [µM] | IC50 [µM] | Structure (SMILES)
1 | 0.837 |  | O=C(Nc1ccncn1)N1CCC(Cc2ccc(Cl)cc2Cl)CC1 [Example 22, 4-[(2,4-dichlorophenyl)methyl]-N-pyrimidin-4-yl-piperidine-1-carboxamide]
2 | 0.356 |  | COc1ccc(CC2CCN(C(=O)Nc3nc(C)ns3)CC2)c(N)c1 [Example 23]
3 | 0.795 |  | Cc1nsc(NC(=O)N2CCC(Cc3ccc(OCC(C)C)cc3F)CC2)n1 [Example 31]
4 | 0.572 |  | Cc1nsc(NC(=O)N2CCC(Cc3ccc(CN4CCOCC4)cc3)CC2)n1 [Example 34, N-(3-methyl-1,2,4-thiadiazol-5-yl)-4-[[4-(morpholinomethyl)phenyl]methyl]piperidine-1-carboxamide]
5 | 0.54 |  | COC(=O)c1ccc(CC2CCN(C(=O)Nc3nc(C)ns3)CC2)c(F)c1 [Example 36]
6 | 0.478 |  | Cc1nsc(NC(=O)N2CCC(Cc3ccc(C(N)=O)cc3F)CC2)n1 [Example 37, 4-[(4-carbamoyl-2-fluoro-phenyl)methyl]-N-(3-methyl-1,2,4-thiadiazol-5-yl)piperidine-1-carboxamide]
7 | 0.67 |  | Cc1nsc(NC(=O)N2CCC(Cc3ccc(N4CCCC4)cc3)CC2)n1 [Example 42]
8 | 0.439 |  | Cc1nsc(NC(=O)N2CCC(=Cc3ccc(N4CCCC4)cc3)CC2)n1 [Example 43]
9 | 0.429 |  | Cc1nsc(NC(=O)N2CCC(Cc3ccc(N4CCCC4)cc3F)CC2)n1 [Example 44]
10 | 0.516 |  | Cc1nsc(NC(=O)N2CCC(Cc3ccc(Cl)cn3)CC2)n1 [Example 61]
11 | 0.465 |  | Cc1nsc(NC(=O)N2CCC(Oc3ccc(F)cc3)CC2)n1 [Example 73]
12 | 0.888 |  | NC(=O)Cc1nsc(NC(=O)N2CCC(=Cc3ccc(Cl)cc3F)CC2)n1 [Example 81, N-[3-(2-amino-2-oxo-ethyl)-1,2,4-thiadiazol-5-yl]-4-[(4-chloro-2-fluoro-phenyl)methylene]piperidine-1-carboxamide]
13 | 0.418 |  | Cc1nsc(NC(=O)N2CCC(=Cc3ccc(C=O)cc3F)CC2)n1 [Example 88, 4-[(2-fluoro-4-formyl-phenyl)methylene]-N-(3-methyl-1,2,4-thiadiazol-5-yl)piperidine-1-carboxamide]
14 | 0.693 |  | Cc1nsc(NC(=O)N2CCC(=Cc3ccc(CN(C)CCO)cc3F)CC2)n1 [Example 90, 4-[[2-fluoro-4-[[2-hydroxyethyl(methyl)amino]methyl]phenyl]methylene]-N-(3-methyl-1,2,4-thiadiazol-5-yl)piperidine-1-carboxamide]
15 | 0.492 |  | Cc1nsc(NC(=O)N2CCC(=Cc3ccc(CNCCCN4CCOCC4)cc3F)CC2)n1 [Example 91]
16 | 0.307 |  | Cc1nsc(NC(=O)N2CCC(=Cc3c(F)cc(O)cc3F)CC2)n1 [Example 99, 4-[(2,6-difluoro-4-hydroxy-phenyl)methylene]-N-(3-methyl-1,2,4-thiadiazol-5-yl)piperidine-1-carboxamide]
17 | 0.642 |  | CC(=C1CCN(C(=O)Nc2nc(C)ns2)CC1)c1ccc(Cl)cc1F [Example 104]
18 | 0.482 |  | Cc1nsc(NC(=O)N2CCC(C(C)c3ccc(Cl)cc3F)CC2)n1 (stereo not drawn) [Example 105]
19 | 0.467 |  | Cc1nsc(NC(=O)N2CCC(=Cc3ccc(Cl)cc3F)C(F)C2)n1 (stereo not drawn) [Example 106]
20 | 0.389 |  | Cc1nsc(NC(=O)N2CCC(=Cc3ccc(OCCCO)cc3F)CC2)n1 [Example 107, 4-[[2-fluoro-4-(3-hydroxypropoxy)phenyl]methylene]-N-(3-methyl-1,2,4-thiadiazol-5-yl)piperidine-1-carboxamide]
21 | 0.514 |  | Cc1nsc(NC(=O)N2CCC(=Cc3ccc(OCCCN)cc3F)CC2)n1 [Example 111]
22 | 0.159 |  | Cc1nsc(NC(=O)N2CCC(=Cc3ccc(N)cc3F)CC2)n1 [Example 119, 4-[(4-amino-2-fluoro-phenyl)methylene]-N-(3-methyl-1,2,4-thiadiazol-5-yl)piperidine-1-carboxamide]
23 | 0.182 |  | Cc1nsc(NC(=O)N2CCC(=Cc3ccc(N(C)CCN)cc3F)CC2)n1 [Example 122, 4-[[4-[2-aminoethyl(methyl)amino]-2-fluoro-phenyl]methylene]-N-(3-methyl-1,2,4-thiadiazol-5-yl)piperidine-1-carboxamide]
24 | 0.245 |  | CC(=O)NCCN(C)c1ccc(C=C2CCN(C(=O)Nc3nc(C)ns3)CC2)c(F)c1 [Example 123, 4-[[4-[2-acetamidoethyl(methyl)amino]-2-fluoro-phenyl]methylene]-N-(3-methyl-1,2,4-thiadiazol-5-yl)piperidine-1-carboxamide]
25 | 0.07 |  | Cc1nsc(NC(=O)N2CCC(=Cc3ccc(N(C)CCCN)cc3F)CC2)n1 [Example 124]
26 | 0.063 |  | Cc1nsc(NC(=O)N2CCCC(=Cc3ccc(N(C)C)cc3F)CC2)n1 [Example 125]

Row | IC50 (Homo sapiens, HeLa, 72 h) [µM] | IC50 [µM] | Structure (SMILES)
27 | 0.068 |  | Cc1nsc(NC(=O)N2CCCC(Cc3ccc(N(C)C)cc3F)CC2)n1 (stereo not drawn) [Example 126]
28 |  | 0.355 | COCC1CN(C(=O)Nc2nc(C)ns2)CC/C1=C/c1ccc(Cl)cc1F (stereo not drawn) [Example 130, (4Z)-4-[(4-chloro-2-fluoro-phenyl)methylene]-3-(methoxymethyl)-N-(3-methyl-1,2,4-thiadiazol-5-yl)piperidine-1-carboxamide]
29 | 0.264 |  | Nc1cc(NC(=O)N2CCC(=Cc3ccc(Cl)cc3F)CC2)ccn1 [Example 131]
30 | 0.076 |  | Cc1cc(NC(=O)N2CCC(=Cc3ccc(N(C)C)cc3F)CC2)ccn1 [Example 132]
31 |  | 0.1 | COCC1CN(C(=O)Nc2nc(C)ns2)CC/C1=C/c1ccc(Cl)cc1F (stereo not drawn) [Example 133]
32 | 0.449 |  | COCCC1CN(C(=O)Nc2nc(C)ns2)CC/C1=C/c1ccc(Cl)cc1F (stereo not drawn) [Example 134, (4Z)-4-[(4-chloro-2-fluoro-phenyl)methylene]-3-(2-methoxyethyl)-N-(3-methyl-1,2,4-thiadiazol-5-yl)piperidine-1-carboxamide]
33 | 0.636 |  | COCCC1CN(C(=O)Nc2nc(C)ns2)CC/C1=C\c1ccc(Cl)cc1F (stereo not drawn) [Example 135, (4E)-4-[(4-chloro-2-fluoro-phenyl)methylene]-3-(2-methoxyethyl)-N-(3-methyl-1,2,4-thiadiazol-5-yl)piperidine-1-carboxamide]
34 | 0.081 |  | Cc1cc(NC(=O)N2CCC(=Cc3ccc(Cl)cc3F)CC2)ncn1 [Example 136]
35 | 0.086 |  | Cc1nsc(NC(=O)N2CCC(C(=O)c3ccc(C(F)(F)F)cc3F)CC2)n1 [Example 142, 4-[2-fluoro-4-(trifluoromethyl)benzoyl]-N-(3-methyl-1,2,4-thiadiazol-5-yl)piperidine-1-carboxamide]
36 | 0.124 |  | Cc1nsc(NC(=O)N2CCC(=Cc3c(F)cc(NC4CCOC4)cc3F)CC2)n1 (stereo not drawn) [Example 150]
37 | 0.149 |  | Cc1nsc(NC(=O)N2CCC(C(=O)c3ccc(N(C)C)cc3F)CC2)n1 [Example 155, 4-[4-(dimethylamino)-2-fluoro-benzoyl]-N-(3-methyl-1,2,4-thiadiazol-5-yl)piperidine-1-carboxamide]
38 | 0.193 |  | Cc1cc(NC(=O)N2CCC(C(=O)c3ccc(N(C)C)cc3F)CC2)ccn1 [Example 156]
39 | 0.215 |  | CCN(CC)c1cc(F)c(C=C2CCN(C(=O)Nc3nc(C)ns3)CC2)c(F)c1 [Example 159]
40 | 0.162 |  | Cc1nsc(NC(=O)N2CCN(Cc3ccc(Cl)cc3F)CC(O)C2)n1 (stereo not drawn) [Example 162]
41 | 0.293 |  | Cc1nsc(NC(=O)N2CCC(=Cc3ccc(N(C)CCCCN)cc3F)CC2)n1 [Example 163]
42 | 0.383 |  | Cc1cc(NC(=O)N2CCC(Cc3ccc(Cl)cc3F)CC2)cnn1 [Example 165]
43 | 0.407 |  | CNc1nsc(NC(=O)N2CCC(Cc3ccc(Cl)cc3F)CC2)n1 [Example 166, 4-[(4-chloro-2-fluoro-phenyl)methyl]-N-[3-(methylamino)-1,2,4-thiadiazol-5-yl]piperidine-1-carboxamide]
44 | 0.5 |  | Cc1nsc(NC(=O)N2CCC(Cc3c(F)cc(Cl)cc3F)CC2(C)C)n1 (stereo not drawn) [Example 167]
45 | 0.28 |  | Cc1nsc(NC(=O)N2CC/C(=C\c3c(F)cc(Cl)cc3F)CC2(C)C)n1 [Example 168]
46 | 0.432 |  | Cc1nsc(NC(=O)N2CC/C(=C/c3c(F)cc(Cl)cc3F)CC2(C)C)n1 [Example 169]
47 | 0.415 |  | Cc1nsc(NC(=O)N2CCC(=Cc3ccc(C#CCO)cc3F)CC2)n1 [Example 170, 4-[[2-fluoro-4-(3-hydroxyprop-1-ynyl)phenyl]methylene]-N-(3-methyl-1,2,4-thiadiazol-5-yl)piperidine-1-carboxamide]
48 | 0.067 |  | Cc1nsc(NC(=O)N2CCC(C(=O)c3ccc(C#N)cc3F)CC2)n1 [Example 171]
49 | 0.126 |  | Cc1cc(NC(=O)N2CCC(C(=O)c3ccc(C#N)cc3F)CC2)ccn1 [Example 172]
50 | 0.16 |  | Cc1cc(NC(=O)N2CCC(C(=O)c3c(F)cc(C#N)cc3F)CC2)ccn1 [Example 174]
51 | 0.058 |  | Cc1cc(NC(=O)N2CCC(=Cc3c(F)cc(C#N)cc3F)CC2)ccn1 [Example 175]
